Values quoted from earlier work in patent publication US7044945B2, “Prevention of regression in thermal ciliary muscle tendinoplasty” (priority 2001, dated 2006).

Assays:
[1] = test system: healing wound
[2] = in mammals

| solubility in water and alcohol | Compound | tensile strength of the wounds ([1]; compared with controls) | thermal shrinkage temperature of individual collagen fibers from the wounds ([1]; treated wounds compared to comparable controls) | toxicity [2] |
| --- | --- | --- | --- | --- |
| – | CCN=C=NCCCN(C)C.Cl [1-ethyl-1-3 (3-dimethylaminopropyl) carbodiimide hydrochloride] | sizable increase | increased | – |
| completely soluble | OCC(O)CO [glycerol] | – | – | very low toxicity |
